Assays:
[1] = target: T1, ERRγ:RIP140 complex (Homo sapiens, UniProt P62508); assay: ERRγ:RIP140 FRET ligand sensing assay (LiSA); type: biochemical; details: ERRγ LBD and RIP140 peptide, one to one ratio
T1 construct: made in house; host or cells: E. coli BL21(DE3), pRSETa vector; RIP140 peptide synthesised by SynPep
T1 sequence (P62508 with tags, fused parts or gaps): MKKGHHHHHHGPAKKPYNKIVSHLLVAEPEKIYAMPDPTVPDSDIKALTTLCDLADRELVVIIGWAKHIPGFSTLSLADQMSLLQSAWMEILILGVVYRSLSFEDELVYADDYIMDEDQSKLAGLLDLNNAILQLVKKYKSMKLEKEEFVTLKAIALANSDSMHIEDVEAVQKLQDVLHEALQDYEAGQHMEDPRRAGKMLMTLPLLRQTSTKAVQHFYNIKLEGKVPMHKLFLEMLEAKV
Experimental: Before using the buffer in the assay, 10 mM DTT was added to the appropriate amount of buffer.

[2] = target: T2, ERRγ (Homo sapiens, UniProt P62508); assay: ERRγ direct binding assay ([3H]-tamoxifen competition, SPA); details: found using FRET assay and direct binding assay in conjunction with the homology model
T2 construct: made in house; host or cells: E. coli BL21(DE3), pRSETa vector
T2 sequence (P62508 with tags, fused parts or gaps): T1 sequence (P62508 with tags, fused parts or gaps)
From the text: The binding assay was developed with a different set of parameters than that of the LiSA assay. No common set of assay conditions is applicable to all nuclear receptors. Accordingly, parameters to be optimized included pH, detergents, carriers, and bead concentrations. By […] several variables at one time, a large number of conditions can be examined through the statistical capabilities of a program called JMP (SAS Institute, Cary N.C.). Multiple variables including, but not limited to, buffer, detergents, and carrier, were entered simultaneously Lnto the program with the goal being to increase specific counts while lowering non-specific counts.
The same ERRγ protein as set forth in Example 4 was used to develop the binding assay. The buffer for this system was prepared with 50 mM MOPS (pH 7), 50 mM KCl, and 1 mM EDTA, in 1 L of deionized water. This buffer was then filtered with the Corning (431205) filter system with a 0.22 μm cellulose Acetate filter. After filtering, 0.01% Tween20 was added. Before using the buffer in the assay, 10 mM DTT was added to the appropriate amount of buffer. Approximately 0.125 mg/ml SA-SPA beads (Wallac) were coated with 20 nM biotinylated ERRγ. […] These plates were then read on the Wallac Trilux scintillation counter.

Molecule | dissociation of the receptor:cofactor interaction [1] | ligand for ERRγ [2]
4-hydroxytamoxifen | caused this dissociation | ligands for ERPγ
CC/C(=C(/c1ccc(OCCN(C)C)cc1)c1cccc(O)c1)c1ccccc1 [3-hydroxytamoxifen] |  | ligands for ERPγ

From US20050074765A1, “Methods for identifying and using modulators of estrogen related receptor gamma” (priority 2002, published 2005)
